Literature values as cited in patent US20120101124A1, “1,2,4-OXADIAZOL DERIVATIVES, THEIR PHARMACEUTICAL COMPOSITIONS AND THEIR USE AS SPHINGOSINE 1-PHOSPHATE 1 RECEPTOR AGONISTS” (GLAXO GROUP LIMITED, priority 2009, published 2012).

Legend:
circulating lymphocytes = settings: animals and man
[1] = clinical studies

## CCCCCCCCc1ccc(CCC(N)(CO)CO)cc1 [FTY720]
Circulating lymphocytes
  effect on circulating lymphocytes: reduce circulating lymphocytes in animals and man
[1]
  bradycardia on treatment: bradycardia in the first 24 hours of treatment
